Laboratory results published in ChEMBL document CHEMBL3856212, “Synthesis, anti-proliferative and genotoxicity studies of 6-chloro-5-(2-substituted-ethyl)-1,3-dihydro-2H-indol-2-ones and 6-chloro-5-(2-chloroethyl)-3-(alkyl/ary-2-ylidene)indolin-2-ones” (Eur J Med Chem, 2016).

Tests used:
[1] = Cytotoxicity against human HCC2998 cells assessed as assessed as growth inhibition at 10^-5 M after 48 hrs by SRB assay relative to control; assay type: functional; conditions: HCC 2998, 48 h, read-out: GI
[2] = Cytotoxicity against human CCRF-CEM cells assessed as growth inhibition after 48 hrs by SRB assay; assay type: functional
[3] = Cytotoxicity against human KM12 cells assessed as assessed as growth inhibition at 10^-5 M after 48 hrs by SRB assay relative to control; assay type: functional; conditions: KM12, 48 h, read-out: GI
[4] = Cytotoxicity against human NCI-H23 cells assessed as assessed as growth inhibition at 10^-5 M after 48 hrs by SRB assay relative to control; assay type: functional; conditions: NCI-H23, 48 h, read-out: GI
[5] = Cytotoxicity against human MDA-MB-468 cells assessed as growth inhibition after 48 hrs by SRB assay; assay type: functional; conditions: MDA-MB-468, 48 h
[6] = Cytotoxicity against human A549 cells assessed as assessed as growth inhibition at 10^-5 M after 48 hrs by SRB assay relative to control; assay type: functional; conditions: A549, 48 h, read-out: GI
[7] = Cytotoxicity against human BT549 cells assessed as growth inhibition after 48 hrs by SRB assay; assay type: functional; conditions: BT-549, 48 h
[8] = Cytotoxicity against human Hs 578T cells assessed as growth inhibition after 48 hrs by SRB assay; assay type: functional
Mus musculus = species: Mus musculus; test: Genotoxicity in mouse EAC cells at 375 uM after 24 hrs by micronucleus assay (reference value: 3.5 +/- 0.30%); assay type: toxicity, cell-based; conditions: ehrlich
[9] = Cytotoxicity against human A498 cells assessed as growth inhibition after 48 hrs by SRB assay; assay type: functional; conditions: A498, 48 h
[10] = Cytotoxicity against human OVCAR5 cells assessed as assessed as growth inhibition at 10^-5 M after 48 hrs by SRB assay relative to control; assay type: functional; conditions: OVCAR-5, 48 h, read-out: GI
[11] = Cytotoxicity against human U251 cells assessed as growth inhibition after 48 hrs by SRB assay; assay type: functional; conditions: U-251, 48 h
[12] = Cytotoxicity against human UACC62 cells assessed as assessed as growth inhibition at 10^-5 M after 48 hrs by SRB assay relative to control; assay type: functional; conditions: UACC-62, 48 h, read-out: GI
[13] = Cytotoxicity against human OVCAR5 cells assessed as growth inhibition after 48 hrs by SRB assay; assay type: functional; conditions: OVCAR-5, 48 h
[14] = Cytotoxicity against human UACC62 cells assessed as growth inhibition after 48 hrs by SRB assay; assay type: functional; conditions: UACC-62, 48 h
[15] = Cytotoxicity against human NCI-H226 cells assessed as growth inhibition after 48 hrs by SRB assay; assay type: functional; conditions: NCI-H226, 48 h
[16] = Cytotoxicity against human MALME-3M cells assessed as assessed as growth inhibition at 10^-5 M after 48 hrs by SRB assay relative to control; assay type: functional; conditions: read-out: GI
[17] = Cytotoxicity against human HCC2998 cells assessed as growth inhibition after 48 hrs by SRB assay; assay type: functional; conditions: HCC 2998, 48 h
[18] = Cytotoxicity against human ACHN cells assessed as assessed as growth inhibition at 10^-5 M after 48 hrs by SRB assay relative to control; assay type: functional; conditions: read-out: GI
[19] = Cytotoxicity against human SK-MEL-2 cells assessed as growth inhibition after 48 hrs by SRB assay; assay type: functional; conditions: SK-MEL-2, 48 h
[20] = Cytotoxicity against human A549 cells assessed as growth inhibition after 48 hrs by SRB assay; assay type: functional; conditions: A549, 48 h
[21] = Cytotoxicity against human MDA-MB-231 cells assessed as assessed as growth inhibition at 10^-5 M after 48 hrs by SRB assay relative to control; assay type: functional; conditions: MDA-MB-231, 48 h, read-out: GI
[22] = Cytotoxicity against human MDA-MB-468 cells assessed as assessed as growth inhibition at 10^-5 M after 48 hrs by SRB assay relative to control; assay type: functional; conditions: MDA-MB-468, 48 h, read-out: GI
[23] = Cytotoxicity against human SF268 cells assessed as growth inhibition after 48 hrs by SRB assay; assay type: functional; conditions: SF-268, 48 h
[24] = Cytotoxicity against human HCT15 cells assessed as assessed as growth inhibition at 10^-5 M after 48 hrs by SRB assay relative to control; assay type: functional; conditions: HCT-15, 48 h, read-out: GI
[25] = Cytotoxicity against human MCF7 cells assessed as growth inhibition after 48 hrs by SRB assay; assay type: functional; conditions: MCF7, 48 h
[26] = Cytotoxicity against human SF295 cells assessed as assessed as growth inhibition at 10^-5 M after 48 hrs by SRB assay relative to control; assay type: functional; conditions: SF-295, 48 h, read-out: GI
[27] = Cytotoxicity against human HT-29 cells assessed as assessed as growth inhibition at 10^-5 M after 48 hrs by SRB assay relative to control; assay type: functional; conditions: HT-29, 48 h, read-out: GI
[28] = Cytotoxicity against human MCF7 cells assessed as assessed as growth inhibition at 10^-5 M after 48 hrs by SRB assay relative to control; assay type: functional; conditions: MCF7, 48 h, read-out: GI
[29] = Cytotoxicity against human NCI-H522 cells assessed as assessed as growth inhibition at 10^-5 M after 48 hrs by SRB assay relative to control; assay type: functional; conditions: NCI-H522, 48 h, read-out: GI
[30] = Cytotoxicity against human NCI-ADR-RES cells assessed as assessed as growth inhibition at 10^-5 M after 48 hrs by SRB assay relative to control; assay type: functional; conditions: read-out: GI
[31] = Cytotoxicity against human BT549 cells assessed as assessed as growth inhibition at 10^-5 M after 48 hrs by SRB assay relative to control; assay type: functional; conditions: BT-549, 48 h, read-out: GI
[32] = Cytotoxicity against human HCT116 cells assessed as growth inhibition after 48 hrs by SRB assay; assay type: functional; conditions: HCT-116, 48 h
[33] = Cytotoxicity against human OVCAR4 cells assessed as assessed as growth inhibition at 10^-5 M after 48 hrs by SRB assay relative to control; assay type: functional; conditions: OVCAR-4, 48 h, read-out: GI
[34] = read-out: LD50 (the source's name)

O=C1Cc2cc(CCN3CCNCC3)c(Cl)cc2N1
inhibition of growth at 10 µM [1]: 24.3% | GI50 [2]: 2980 nM | TGI [2]: > 1000 nM | CC50 [2, 34]: > 1000 nM | inhibition of growth at 10 µM [3]: 70.4% | inhibition of growth at 10 µM [4]: 77.2% | GI50 [5]: 2240 nM | TGI [5]: 7420 nM | CC50 [5, 34]: > 1000 nM | inhibition of growth at 10 µM [6]: 51.1% | GI50 [7]: 8180 nM | TGI [7]: > 1000 nM | CC50 [7, 34]: > 1000 nM | GI50 [8]: 1570 nM | TGI [8]: > 1000 nM | CC50 [8, 34]: > 1000 nM | Activity (Mus musculus): 6.33% | GI50 [9]: 2850 nM | TGI [9]: > 1000 nM | CC50 [9, 34]: > 1000 nM | inhibition of growth at 10 µM [10]: 34.7% | GI50 [11]: 7790 nM | TGI [11]: > 1000 nM | CC50 [11, 34]: > 1000 nM | inhibition of growth at 10 µM [12]: 44.8% | GI50 [13]: 7920 nM | TGI [13]: > 1000 nM | CC50 [13, 34]: > 1000 nM | GI50 [14]: 6540 nM | TGI [14]: > 1000 nM | CC50 [14, 34]: > 1000 nM | GI50 [15]: 1000 nM | TGI [15]: > 1000 nM | CC50 [15, 34]: > 1000 nM | inhibition of growth at 10 µM [16]: 19.6% | GI50 [17]: 4660 nM | TGI [17]: > 1000 nM | CC50 [17, 34]: > 1000 nM | inhibition of growth at 10 µM [18]: 35.5% | GI50 [19]: 1520 nM | TGI [19]: > 1000 nM | CC50 [19, 34]: > 1000 nM | GI50 [20]: 6850 nM | TGI [20]: > 1000 nM | CC50 [20, 34]: > 1000 nM | inhibition of growth at 10 µM [21]: 64.1% | inhibition of growth at 10 µM [22]: 89% | GI50 [23]: 1270 nM | TGI [23]: > 1000 nM | CC50 [23, 34]: > 1000 nM | inhibition of growth at 10 µM [24]: 51.2% | GI50 [25]: 3650 nM | TGI [25]: > 1000 nM | CC50 [25, 34]: > 1000 nM | inhibition of growth at 10 µM [26]: 46.4% | inhibition of growth at 10 µM [27]: 11.9% | inhibition of growth at 10 µM [28]: 74.9% | inhibition of growth at 10 µM [29]: 73.6% | inhibition of growth at 10 µM [30]: 51.6% | inhibition of growth at 10 µM [31]: 40.9% | GI50 [32]: 1000 nM | TGI [32]: > 1000 nM | CC50 [32, 34]: > 1000 nM | inhibition of growth at 10 µM [33]: 19%
